This is an account of results in patent US5260276A, “Linear and monocyclic endothelin antagonists” (Warner-Lambert Company, priority 1991, dated 1993).

Assay [1] concerns the target endothelin receptor ([125I]-ET-1 binding), rat heart ventricle. As to the kind of experiment: Inhibition of [125I]-ET-1 binding in a receptor assay, rat heart ventricle. The settings on record: [125I]-ET-1, rat heart ventricle 10 μg, 37° C., 2 hours. As to the method:
The compounds of Formula I are valuable antagonists of endothelin. […] Thus, the compounds of Formula I were tested for their ability to inhibit [^125 I]-ET-1([^125 I]-Endothelin-1) binding in a receptor assay. The binding of the compounds of Formula I is determined by incubation (37° C., 2 hours) of a compound of Formula I with [^125 I]-ET-1 and the tissue (rat heart ventricle (10 μg)) in 50 mM Tris(hydroxymethyl)aminomethane hydrochloride (Tris-HCl) (pH 7.4), 5 mM ethylenediamine tetraacetic acid (EDTA), 2 mM ethylene glycol bis(β-aminoethyl ether)N,N,N',N'-tetraacetic acid (EGTA), 100 μM phenylmethylsulfonyl fluoride (PMSF), and 100 μM bacitracin containing protease inhibitors (total volume of 0.5 mL). IC50 values are calculated by weighing nonlinear regression curve-fitting to the mass-action (Langmuir) equation. The functional activity of compounds of Formula I is determined in Rat-1 cells by measuring intracellular levels of second messengers. Thus, cells are prelabeled with [^3 H]-inositol and endothelin-stimulated accumulation of total [^3 H]-inositol phosphates in the presence of Li^+ is monitored using anion exchange chromatography as described by Muldoon, L. L., et al, Journal of Biological Chemistry, Volume 264, pages 8529-8536 (1989) and Dudley, D. T., et al, Molecular Pharmacology, Volume 38, pages 370-377 (1990). Antagonist activity is assessed as the ability of added compounds to reduce endothelin stimulated inositol phosphate accumulation. The data in the table show the endothelin antagonist activity of representative compounds of Formula I.

The test system of assay [2] is ET receptor, selected tissues. The settings on record: relative to ET-1; cited from earlier work.

Where a SMILES comes first, the peptide text is derived from it. Bridges are numbered along the chain shown (N, C = ends). Where no end group is shown, it is not given here. [ ]: non-standard residue; d: D form. Ava = NCCCCC(=O)O

In the case of `CC[C@H](C)[C@H](NC(=O)[C@H](CC(=O)O)NC(=O)[C@H](CC(C)C)NC(=O)[C@H](Cc1c[nH]cn1)NC(=O)[C@@H]1CSSC[C@H](N)C(=O)N[C@@H](CO)C(=O)N[C@@H](CC(=O)O)C(=O)N[C@@H](CC(C)C)C(=O)N[C@@H](CCC(=O)O)C(=O)N[C@@H](C(C)C)C(=O)N[C@@H](Cc2ccc(O)cc2)C(=O)N[C@@H](Cc2ccccc2)C(=O)N1)C(=O)N[C@H](C(=O)N[C@@H](Cc1c[nH]c2ccccc12)C(=O)O)[C@@H](C)CC` [Example 10] (H-CSDLEVYFCHLDIIW-OH; disulfide 1-9), the IC50 – broadly, the concentration needed to halve the response being measured – in assay [1] was 3200 nM. For the molecule “ET[1-20]: endothelin-1 fragment 1-20, lacking the C-terminal amino acid Trp-21 (CSCSSLMDKECVYFCHLDII; ends and bridges not checked; cysteine pairing not given here; UniProt P05305 53-72, looked up, fragment)”, the “fold less functional activity” value in assay [2] is on record as “approximately 1000 fold”. In assay [1], `CC[C@H](C)[C@H](NC(=O)[C@H](CC(=O)O)NC(=O)[C@H](CC(C)C)NC(=O)[C@H](Cc1c[nH]cn1)NC(=O)[C@@H]1CSSC[C@H](N)C(=O)N[C@@H](CO)C(=O)NCCCCC(=O)N[C@@H](C(C)C)C(=O)N[C@@H](Cc2ccc(O)cc2)C(=O)N[C@@H](Cc2ccccc2)C(=O)N1)C(=O)N[C@H](C(=O)N[C@@H](Cc1c[nH]c2ccccc12)C(=O)O)[C@@H](C)CC` [Example 5] (H-CS[Ava]VYFCHLDIIW-OH; disulfide 1-7; N-terminus and C-terminus assumed) yielded an IC50 of 1800 nM. The same measure, in the same setting: next, `CC[C@@H](C)[C@@H](NC(=O)[C@@H](NC(=O)[C@H](CC(=O)O)NC(=O)[C@H](CC(C)C)NC(=O)[C@H](Cc1c[nH]cn1)NC(=O)[C@@H]1CSSC[C@H](N)C(=O)N[C@@H](CO)C(=O)N[C@@H](CO)C(=O)N[C@@H](CO)C(=O)N[C@@H](C(C)C)C(=O)N[C@@H](Cc2ccc(O)cc2)C(=O)N[C@@H](Cc2ccccc2)C(=O)N1)[C@@H](C)CC)C(=O)N[C@@H](Cc1c[nH]c2ccccc12)C(=O)O` [Example 14] (H-CSSSVYFCHLDI[dI]W-OH; disulfide 1-8; N-terminus assumed): 2600 nM.
